Type in all cases: cell-based
One experiment addresses T1, 5-HT2A (Homo sapiens, UniProt P28223).
T1 construct: host or cells: HEK293
Nature of the experiment: FLIPR Ca2+ flux functional assay, 5-HT2A (HEK293). As to conditions: HEK293 cells expressing 5-HT2A; for Emax: HEK293, agonist activity; for EC50: agonist activity. On the technique in general: Calcium flux is commonly read through the fluorescence of an indicator in the cells.

The next experiment has as its target T2, 5-HT2C (Homo sapiens, UniProt P28335).
T2 construct: host or cells: HEK293
T2 sequence (P28335 33-458): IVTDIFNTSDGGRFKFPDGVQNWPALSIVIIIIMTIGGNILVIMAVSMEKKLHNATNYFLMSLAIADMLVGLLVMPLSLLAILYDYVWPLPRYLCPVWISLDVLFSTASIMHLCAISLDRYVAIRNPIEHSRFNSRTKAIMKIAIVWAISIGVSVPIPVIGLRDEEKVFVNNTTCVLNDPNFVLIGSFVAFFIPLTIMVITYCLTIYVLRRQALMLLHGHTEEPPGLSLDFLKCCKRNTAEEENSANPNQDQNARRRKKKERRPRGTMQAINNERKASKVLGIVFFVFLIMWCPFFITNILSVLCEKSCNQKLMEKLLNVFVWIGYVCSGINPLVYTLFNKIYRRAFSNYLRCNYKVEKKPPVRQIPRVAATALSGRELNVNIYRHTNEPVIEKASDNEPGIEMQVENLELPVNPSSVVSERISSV
The experiment is described as follows: FLIPR Ca2+ flux functional assay, 5-HT2C (HEK293). Conditions: HEK293 cells expressing 5-HT2C; for Emax: HEK293, agonist activity; for EC50: agonist activity.

Another experiment has as its target T3, 5-HT2B (Homo sapiens, UniProt P41595).
T3 construct: host or cells: CHO-K1
The experiment is described as follows: Activation in a similar Ca2+ flux assay at a single concentration, 5-HT2B. As to conditions: head prints 10 µM. How it is done: Activity at 5-HT2A, 5-HT2B and 5-HT2C receptors was determined using a FLIPR Ca2+ flux assay at WuXi AppTec Co. Ltd. (Hong Kong) Discovery Biology Unit according to their standard protocols. Briefly, stably transfected cells expressing the receptor of interest (HEK293 for 5-HT2A and 5-HT2C; CHO-K1 for 5-HT2B) were grown and plated in a 384 well plate and incubated at 37° C. and 5% CO2 overnight. A 250 mM stock solution of probenecid in FLIPR calcium assay buffer (10 mL) was freshly prepared and combined with a fluorescent dye (Fluo-4 Direct) to give a final assay concentration of 2.5 mM. Reference compounds were 4-fold serially diluted and the screening compounds were 3-fold serially diluted in 100% DMSO for 10 points using Agilent Bravo, and 750 nL was added to a 384 well compound plate using Echo along with 30 μL assay buffer. The fluorescent dye was then added to the assay plate along with assay buffer to a final volume of 40 μL. The cell plate was incubated for 50 min at 37° C. and 5% CO2 and placed into the FLIPR Tetra along with the compound plate. 10 μL of references and compounds were then transferred from the compound plate into the cell plate and the fluorescent signal was read.
Activation data are provided in a similar assay tested at a single 10 μM concentration.

T1 sequence (P28223 whole entry): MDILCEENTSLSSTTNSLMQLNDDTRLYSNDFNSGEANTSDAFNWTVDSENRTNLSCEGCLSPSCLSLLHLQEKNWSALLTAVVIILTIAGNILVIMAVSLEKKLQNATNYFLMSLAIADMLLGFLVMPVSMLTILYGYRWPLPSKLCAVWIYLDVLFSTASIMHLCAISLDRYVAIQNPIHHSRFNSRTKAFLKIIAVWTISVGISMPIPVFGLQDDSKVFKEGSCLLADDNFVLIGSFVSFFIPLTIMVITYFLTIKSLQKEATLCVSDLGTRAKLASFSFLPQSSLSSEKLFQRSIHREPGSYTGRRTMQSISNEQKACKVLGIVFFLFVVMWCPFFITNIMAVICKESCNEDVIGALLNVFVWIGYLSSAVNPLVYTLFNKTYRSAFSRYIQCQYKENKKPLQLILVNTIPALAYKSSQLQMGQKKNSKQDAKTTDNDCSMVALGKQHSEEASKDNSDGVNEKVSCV
T3 sequence (P41595 whole entry, species assumed): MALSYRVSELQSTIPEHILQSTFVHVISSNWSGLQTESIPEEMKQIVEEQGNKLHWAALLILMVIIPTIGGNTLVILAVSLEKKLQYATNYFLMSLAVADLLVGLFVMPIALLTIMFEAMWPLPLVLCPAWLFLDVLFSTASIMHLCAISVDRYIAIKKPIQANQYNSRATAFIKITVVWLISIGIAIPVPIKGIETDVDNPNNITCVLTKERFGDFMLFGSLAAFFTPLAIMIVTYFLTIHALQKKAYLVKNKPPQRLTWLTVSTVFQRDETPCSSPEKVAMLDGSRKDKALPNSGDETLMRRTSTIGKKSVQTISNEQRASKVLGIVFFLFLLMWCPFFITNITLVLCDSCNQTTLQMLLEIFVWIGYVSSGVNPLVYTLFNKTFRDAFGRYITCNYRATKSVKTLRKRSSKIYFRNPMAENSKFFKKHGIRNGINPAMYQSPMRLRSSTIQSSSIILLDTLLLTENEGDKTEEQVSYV

Regarding `CCN(C)CCc1n[nH]c2cc(F)c(OC)cc12` [Example A6, N-ethyl-2-(6-fluoro-5-methoxy-1H-indazol-3-yl)-N-methylethan-1-amine], the Emax on 5-HT2A is 86%; on 5-HT2C it was 101%. For the same compound, the EC50 is 110 nM on 5-HT2A and 786 nM at 5-HT2C. In addition, at 5-HT2B, the “5-HT2B % Activation @ 10 µM” value was 40%.

On 5-HT2A, `COc1cc(F)c2[nH]nc(CCN3CCC4CC43)c2c1` (stereo not drawn) [Example A55, 3-(2-(2-azabicyclo[3.1.0]hexan-2-yl)ethyl)-7-fluoro-5-methoxy-1H-indazole] returned an Emax of 86.2% and an EC50 of 39.8 nM. On 5-HT2C, this compound came in with an Emax of 87% and an EC50 of 207 nM. At 5-HT2B, the “5-HT2B % Activation @ 10 µM” value is on record as 48%.

Turning to `COc1ccc2[nH]nc(CCNCc3ccccc3)c2c1` [Example A62, N-benzyl-2-(5-methoxy-1H-indazol-3-yl)ethan-1-amine], at 5-HT2A, the Emax amounted to 81% and the response was half-maximal at 29.1 nM (EC50). On 5-HT2C, the Emax is 85% and the EC50 is 179 nM. Further, the “5-HT2B % Activation @ 10 µM” value on 5-HT2B is listed as 0%.

With `CCN(C)CCc1n[nH]c2cc(F)cc(F)c12` [Example A29, 2-(4,6-difluoro-1H-indazol-3-yl)-N-ethyl-N-methylethan-1-amine], at 5-HT2A, the maximal effect (Emax) was determined as 33% and it took 687 nM to reach a half-maximal effect (EC50). At 5-HT2C, this compound showed an Emax of 70% and an EC50 of 1480 nM. Besides, the “5-HT2B % Activation @ 10 µM” value on 5-HT2B came out at 0%.

At 5-HT2A, `COc1cc2c(CCN3CCCC3)n[nH]c2cc1F` [Example A59, 6-fluoro-5-methoxy-3-(2-(pyrrolidin-1-yl)ethyl)-1H-indazole] yielded an Emax of 79% and a half-maximal effective concentration (EC50) of 202 nM. On 5-HT2C, this compound registered an Emax of 66% and a 50% effective concentration (EC50) of 3870 nM. In addition, the “5-HT2B % Activation @ 10 µM” value at 5-HT2B is given as 5%.

With `CN(CCc1n[nH]c2ccc(F)cc12)C1CC1` [Example A20, N-(2-(5-fluoro-1H-indazol-3-yl)ethyl)-N-methylcyclopropanamine], the Emax stood at 45% at 5-HT2A and 83% on 5-HT2C. Besides, the figures for the EC50 on 5-HT2A and on 5-HT2C were 419 nM and 206 nM, respectively. Moreover, at 5-HT2B, the “5-HT2B % Activation @ 10 µM” value is recorded as 1%.

For the compound `COc1ccc(F)c2[nH]nc(CCN3CCCC3)c12` [Example A48, 7-fluoro-4-methoxy-3-(2-(pyrrolidin-1-yl)ethyl)-1H-indazole], the Emax came to 70% at 5-HT2A and 67% on 5-HT2C. For the same compound, the EC50 was 533 nM on 5-HT2A and 556 nM at 5-HT2C.

Take `COc1cc(F)c2[nH]nc(CCN(C)C)c2c1` [Example A50, 2-(7-fluoro-5-methoxy-1H-indazol-3-yl)-N,N-dimethylethan-1-amine]: the Emax on 5-HT2A was determined as 79%; on 5-HT2C it was 11%. The results for the EC50 on 5-HT2A and on 5-HT2C were 242 nM and > 10000 nM, respectively. Also, at 5-HT2B, the “5-HT2B % Activation @ 10 µM” value came out at 2%.

At 5-HT2A, `CCN(C)CCc1n[nH]c2c(F)cc(F)cc12` [Example A36, 2-(5,7-difluoro-1H-indazol-3-yl)-N-ethyl-N-methylethan-1-amine] gave an Emax of 70% and a 50% effective concentration (EC50) of 361 nM. Further, on 5-HT2C, the maximal effect (Emax) worked out at 55% and the concentration for a half-maximal effect (EC50) turned out to be 732 nM. Besides, the “5-HT2B % Activation @ 10 µM” value on 5-HT2B is listed as 0%.

As to `Fc1ccc2[nH]nc(CCN3CCCC3)c2c1F` [Example A73, 4,5-difluoro-3-(2-(pyrrolidin-1-yl)ethyl)-1H-indazole], on 5-HT2A, the maximal response (Emax) stood at 87% and a half-maximal response (EC50) required 768 nM. Further, on 5-HT2C, the Emax was determined as 70% and the concentration for a half-maximal effect (EC50) was 1780 nM. Moreover, the “5-HT2B % Activation @ 10 µM” value at 5-HT2B is listed as 18%.

As for `COc1cc(F)cc2[nH]nc(CCN3CCC4CC43)c12` (stereo not drawn) [Example A43, 3-(2-(2-azabicyclo[3.1.0]hexan-2-yl)ethyl)-6-fluoro-4-methoxy-1H-indazole], at 5-HT2A, the Emax turned out to be 89% and the EC50 came to 29.7 nM. Further, at 5-HT2C, the Emax came to 99% and a half-maximal effect (EC50) was put at 39.9 nM. Moreover, the “5-HT2B % Activation @ 10 µM” value on 5-HT2B is given as 102%.

For `COc1cc2c(CCN(C)C3CC3)n[nH]c2cc1F` [Example A8, N-(2-(6-fluoro-5-methoxy-1H-indazol-3-yl)ethyl)-N-methylcyclopropanamine], the Emax at 5-HT2A came to 71%; on 5-HT2C, 102%. For the same compound, the EC50 came out at 208 nM on 5-HT2A and 507 nM at 5-HT2C. The “5-HT2B % Activation @ 10 µM” value at 5-HT2B was 6%.

`Fc1ccc2[nH]nc(CCN3CCC3)c2c1F` [Example A72, 3-(2-(azetidin-1-yl)ethyl)-4,5-difluoro-1H-indazole]: on 5-HT2A, the Emax was determined as 78% and the concentration giving a half-maximal response (EC50) was 1350 nM. At 5-HT2C, the Emax is 37% and it took 973 nM to reach a half-maximal effect (EC50).

On 5-HT2A, `COc1cc(F)cc2[nH]nc(CCN(C)C)c12` [Example A38, 2-(6-fluoro-4-methoxy-1H-indazol-3-yl)-N,N-dimethylethan-1-amine] displayed an Emax of 77% and an EC50 of 75 nM. On 5-HT2C, this compound had an Emax of 75% and a concentration for a half-maximal effect (EC50) of 203 nM. Also, the “5-HT2B % Activation @ 10 µM” value at 5-HT2B came to 0%.

On 5-HT2A, `COc1ccccc1CNCCc1n[nH]c2cccc(F)c12` [Example A34, 2-(4-fluoro-1H-indazol-3-yl)-N-(2-methoxybenzyl)ethan-1-amine] had an Emax of 86% and an EC50 of 55.2 nM. On 5-HT2C, the maximum response (Emax) is 84% and the EC50 is 167 nM. For the same compound, the “5-HT2B % Activation @ 10 µM” value at 5-HT2B was 0%.

`COc1cc2c(CCN(C)C(C)C)n[nH]c2cc1F` [Example A7, N-(2-(6-fluoro-5-methoxy-1H-indazol-3-yl)ethyl)-N-methylpropan-2-amine]: the Emax at 5-HT2A amounted to 63%; on 5-HT2C, 67%. In addition, the EC50 at 5-HT2A stood at 318 nM; on 5-HT2C, 4180 nM. In addition, on 5-HT2B, the “5-HT2B % Activation @ 10 µM” value is given as 7%.

As to `COc1cc(F)c2[nH]nc(CCN3CCC3)c2c1` [Example A53, 3-(2-(azetidin-1-yl)ethyl)-7-fluoro-5-methoxy-1H-indazole], the Emax on 5-HT2A came out at 94%; on 5-HT2C, 48%. In addition, the figures for the half-maximal effective concentration (EC50) on 5-HT2A and on 5-HT2C were 318 nM and 1180 nM, respectively. Besides, the “5-HT2B % Activation @ 10 µM” value at 5-HT2B was 0%.

With `COc1cccc(CNCCc2n[nH]c3ccc(OC)cc23)c1` [Example A66, 2-(5-methoxy-1H-indazol-3-yl)-N-(3-methoxybenzyl)ethan-1-amine], at 5-HT2A, the Emax turned out to be 63% and it took 50 nM to reach a half-maximal effect (EC50). Besides, at 5-HT2C, the Emax stood at 53% and the EC50 stood at 1260 nM. For the same compound, the “5-HT2B % Activation @ 10 µM” value at 5-HT2B came to 0%.

Regarding `COc1c(F)ccc2[nH]nc(CCN(C)C)c12` [Example A1, 2-(5-fluoro-4-methoxy-1H-indazol-3-yl)-N,N-dimethylethan-1-amine], on 5-HT2A, the Emax was determined as 82% and the response was half-maximal at 28.3 nM (EC50). Further, at 5-HT2C, the Emax was 84% and the EC50 was found to be 8.21 nM. Further, at 5-HT2B, the “5-HT2B % Activation @ 10 µM” value is 21%.

At 5-HT2A, `COc1cc2c(CCN3CCC4CC43)nn(C)c2cc1F` (stereo not drawn) [Example A75, 3-(2-(2-azabicyclo[3.1.0]hexan-2-yl)ethyl)-6-fluoro-5-methoxy-1-methyl-1H-indazole] yielded an Emax of 77% and an EC50 of 63.4 nM.

At 5-HT2A, `COc1cc(F)cc2[nH]nc(CCN3CCCC3)c12` [Example A42, 6-fluoro-4-methoxy-3-(2-(pyrrolidin-1-yl)ethyl)-1H-indazole] yielded an Emax of 81% and an EC50 of 697 nM. Further, on 5-HT2C, the Emax is 89% and the response was half-maximal at 944 nM (EC50).

On to `COc1cc(F)cc2[nH]nc(CCN3CCC3)c12` [Example A41, 3-(2-(azetidin-1-yl)ethyl)-6-fluoro-4-methoxy-1H-indazole], for which, on 5-HT2A, the Emax was 78% and the EC50 stood at 1080 nM. On 5-HT2C, this compound came in with an Emax of 65% and an EC50 of 1420 nM.

On 5-HT2A, `COc1cc(F)c2[nH]nc(CCN3CCCC3)c2c1` [Example A54, 7-fluoro-5-methoxy-3-(2-(pyrrolidin-1-yl)ethyl)-1H-indazole] yielded an Emax of 75% and an EC50 of 1380 nM. Moreover, on 5-HT2C, the Emax was 38% and the EC50 turned out to be 3260 nM.

Regarding `COc1cc2c(CCN3CC4CC4C3)n[nH]c2cc1F` (stereo not drawn) [Example A61, 3-(2-(3-azabicyclo[3.1.0]hexan-3-yl)ethyl)-6-fluoro-5-methoxy-1H-indazole], the Emax at 5-HT2A worked out at 67%; at 5-HT2C, 21%. The EC50 on 5-HT2A is 1580 nM; on 5-HT2C, > 10000 nM.

What is called Emax is the size of the effect at its maximum, as opposed to the concentration needed. Broadly, the EC50 is the concentration that produces a half-maximal response. A lower EC50 goes with an effect from little substance.

The values are drawn from patent US12428380B2 (PSYLO PTY LTD, priority 2023, dated 2025).
